Laboratory results taken from the supplement of paper PMC10307832.

Columns and labels:
Assay in all cases: relative viability (nuclei count vs DMSO), 5 days (fraction); higher = more cells survive
Adavosertib = compound: C=CCn1c(=O)c2cnc(Nc3ccc(N4CCN(C)CC4)cc3)nc2n1-c1cccc(C(C)(C)O)n1 [Adavosertib]
Method in brief: (§1)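 Hoechst staining, done together with fixation and permeabilisation, marked nuclei for 4× imaging and MetaXpress counting. This followed 5 days without medium change after lung cancer cell lines, kept overnight at 37 °C in 1536-well plates, were pinned with five library-drug doses (not always all listed) spaced by √10 on vehicle-anchored plates. Viability is the ratio of treated-well to vehicle-well nuclei, expressed as a median across plates. Plates passed only at control CV below 25% with at least one doubling.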

Nelarabine = compound: COc1nc(N)nc2c1ncn2[C@@H]1O[C@H](CO)[C@@H](O)[C@@H]1O [Nelarabine]
Method in brief: as §1

Nelarabine + Bortezomib = compound: COc1nc(N)nc2c1ncn2[C@@H]1O[C@H](CO)[C@@H](O)[C@@H]1O [Nelarabine] + CC(C)C[C@H](NC(=O)[C@H](Cc1ccccc1)NC(=O)c1cnccn1)B(O)O [Bortezomib] (partner 0.002 µM)
Method in brief: (§2)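 Dosing by pin tool came one day after lung cancer cell lines were seeded in 1536-well plates, using either one drug or a fixed anchor-drug dose plus five library-drug doses (not always all listed) in √10 steps. After 5 days, nuclei were counted on 4× images. Relative viability is treated-well nuclei count divided by vehicle-well nuclei count, and values are medians of duplicate plates.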

Adavosertib + Alpelisib = compound: C=CCn1c(=O)c2cnc(Nc3ccc(N4CCN(C)CC4)cc3)nc2n1-c1cccc(C(C)(C)O)n1 [Adavosertib] + Cc1nc(NC(=O)N2CCC[C@H]2C(N)=O)sc1-c1ccnc(C(C)(C)C(F)(F)F)c1 [Alpelisib] (partner 2 µM)
Method in brief: as §2

| Cell Line | relative viability (Adavosertib; 0.01 µM) | relative viability (Adavosertib; 0.03162 µM) | relative viability (Adavosertib; 0.1 µM) | relative viability (Adavosertib; 0.3162 µM) | relative viability (Nelarabine; 0.01 µM) | relative viability (Nelarabine; 0.03162 µM) | relative viability (Nelarabine; 0.1 µM) | relative viability (Nelarabine; 0.3162 µM) | relative viability (Nelarabine; 1 µM) | relative viability (Nelarabine + Bortezomib; first compound 0.01 µM) | relative viability (Nelarabine + Bortezomib; first compound 0.03162 µM) | relative viability (Nelarabine + Bortezomib; first compound 0.1 µM) | relative viability (Nelarabine + Bortezomib; first compound 0.3162 µM) | relative viability (Nelarabine + Bortezomib; first compound 1 µM) | relative viability (Adavosertib + Alpelisib; first compound 0.01 µM) | relative viability (Adavosertib + Alpelisib; first compound 0.03162 µM) | relative viability (Adavosertib + Alpelisib; first compound 0.1 µM) | relative viability (Adavosertib + Alpelisib; first compound 0.3162 µM) |
| --- | --- | --- | --- | --- | --- | --- | --- | --- | --- | --- | --- | --- | --- | --- | --- | --- | --- | --- |
| UMC-11 | 0.973 | 0.943 | 1 | 1.08 | 1.1 | 0.821 | 0.987 | 1.07 | 0.996 | 0.928 | 0.572 | 0.924 | 0.816 | 0.535 | 1.03 | 1.02 | 1.18 | 1.04 |
| COR-L 105 | 0.865 | 0.885 | 0.807 | 0.747 | 1.01 | 1.12 | 0.971 | 0.842 | 1.04 | 1.02 | 0.912 | 0.683 | 0.678 | 0.979 | 1.05 | 1.12 | 0.972 | 0.798 |
| NCI-H2085 | 0.991 | 1.01 | 1 | 1.03 | 1 | 1.04 | 0.963 | 0.995 | 0.958 | 1.07 | 0.976 | 1.02 | 1.05 | 0.889 | 1.02 | 0.993 | 0.969 | 0.975 |
| IA-LM | 0.927 | 0.953 | 1 | 1.03 | 1.1 | 1.12 | 1.06 | 1.07 | 0.971 | 0.989 | 1.04 | 0.986 | 0.927 | 0.748 | 0.649 | 0.731 | 0.833 | 0.931 |
| NCI-H1792 | 0.749 | 0.915 | 0.75 | 0.895 | 0.973 | 0.928 | 1.16 | 1.06 | 0.855 | 1.28 |  | 1.05 | 1.17 | 0.85 | 0.67 | 0.649 | 0.697 | 0.48 |
| NCI-H2009 | 1.02 | 1.01 | 1.07 | 1.02 | 1.23 | 1.07 | 1 | 1.02 | 1.03 | 1.24 | 1.09 | 0.952 | 1.03 | 1.06 | 1.13 | 1.22 | 1.13 | 1.17 |
| BEN | 0.886 | 1.04 | 1.06 | 1.09 | 1.05 | 1.05 | 1.02 | 1.19 | 1.03 | 0.915 | 0.652 | 0.887 | 1.19 | 0.969 | 1.24 | 1.09 | 1.04 | 1.18 |
| RERF-LC-KJ | 1.01 | 0.971 | 1.02 | 0.994 | 1.18 | 1.09 | 1.06 | 1.07 | 1.02 | 1.03 | 1.39 | 1.24 | 1.29 | 1.33 | 0.855 | 0.784 | 0.764 | 0.793 |
| LU99A | 1.03 | 0.977 | 0.894 | 0.924 | 0.965 | 0.952 | 0.956 | 0.946 | 1.07 | 1.33 | 1.09 | 1.15 | 1.23 | 1.33 | 0.48 | 0.511 | 0.476 | 0.319 |
| PC-14 | 1.01 | 1.01 | 1.01 | 0.605 | 1.19 | 0.99 | 1.21 | 1.07 | 1.03 | 1.14 | 0.898 | 0.854 | 0.828 | 0.841 | 0.944 | 0.883 | 0.948 | 0.493 |
| NCI-H650 | 0.896 | 0.972 | 1.03 | 0.859 | 0.942 | 0.996 | 0.962 | 1 | 1.04 | 1.13 | 0.703 | 0.758 | 0.977 | 0.897 | 1.15 | 1.1 | 1.17 | 0.935 |
| NCI-H1651 | 0.947 | 0.985 | 0.979 | 0.951 | 1.1 | 1.07 | 1.06 | 1.08 | 1.01 | 1 | 0.873 | 1.02 | 0.977 | 0.817 | 0.833 | 1.06 | 0.936 | 0.687 |
| NCI-H2023 | 0.892 | 0.87 | 0.752 | 0.451 | 1.48 | 1.05 | 0.97 | 1.02 | 0.851 | 1.28 | 1.08 | 0.864 | 1.04 | 0.934 | 0.512 | 0.602 | 0.548 | 0.39 |
| NCI-H1703 | 1.29 | 0.892 | 1.08 | 0.249 | 1.3 | 1 | 1.06 | 1.06 | 0.953 | 0.364 | 0.162 | 0.405 | 0.303 | 0.448 | 0.367 | 0.361 | 0.304 | 0.147 |
| NCI-H2087 | 0.968 | 0.95 | 1.08 | 1.13 | 1.1 | 0.981 | 1.05 | 1.22 | 0.881 | 1.08 | 0.821 | 1.03 | 1.03 | 0.793 | 1.11 | 1.07 | 1.2 | 0.944 |
| EKVX | 0.975 | 0.967 | 0.955 | 1.1 | 1.09 | 0.898 | 0.857 | 1.09 | 0.968 | 1.35 | 0.853 | 1.05 | 1.25 | 1.14 | 0.843 | 0.858 | 0.833 | 0.911 |
| NCI-H1975 | 0.971 | 0.899 | 0.935 | 0.759 | 1.21 | 1.01 | 1.14 | 1.17 | 1.04 | 0.362 | 0.258 | 0.429 | 0.399 | 0.404 | 0.736 | 0.63 | 0.546 | 0.339 |
| NCI-H520 | 0.948 | 0.876 | 1 | 0.879 | 1.2 | 1.02 | 1.1 | 0.941 | 1.01 | 0.67 | 0.552 | 0.696 | 0.542 | 0.529 | 0.884 | 0.887 | 1.03 | 0.717 |
| NCI-H647 | 1.03 | 1.04 | 0.918 | 0.669 | 1.29 | 0.916 | 1.07 | 1.14 | 0.997 | 1.28 | 0.988 | 0.897 | 1.29 | 1.14 | 1.1 | 1.1 | 1.02 | 0.508 |
| NCI-H1755 | 1.02 | 0.998 | 0.958 | 0.86 | 1.01 | 0.948 | 0.988 | 1.1 | 1.1 | 1.02 | 0.971 | 0.947 | 1.03 | 1.03 | 0.983 | 0.859 | 0.856 | 0.868 |
| SK-LU-1 | 1.1 | 1.04 | 0.886 | 0.488 | 1.35 | 0.885 | 1.1 | 1.2 | 1.18 | 1.56 | 1.02 | 1.61 | 1.1 | 1.13 | 1.04 | 1.01 | 0.656 | 0.291 |
| Calu-6 | 1.03 | 1.03 | 1.05 | 0.6 | 1.19 | 1.13 | 1.04 | 1.1 | 1.1 | 1.1 |  | 1.05 | 0.947 | 1.08 | 0.983 | 0.856 | 0.94 | 0.793 |
| LXF-289 | 1.02 | 0.988 | 1.01 | 1.04 | 1.11 | 1.04 | 1.01 | 1.05 | 0.995 | 1.13 | 0.99 | 0.995 | 1 | 1.01 | 1.08 | 1.01 | 1.09 | 1.07 |
| NCI-H1563 | 0.954 | 0.894 | 0.917 | 1.01 | 1.04 | 1.03 | 0.951 | 0.985 | 0.986 | 0.943 | 0.903 | 0.766 | 0.84 | 0.908 | 0.924 | 0.943 | 0.949 | 1.12 |
| NCI-H1993 | 0.9 | 0.996 | 0.925 | 1.1 | 1.03 | 0.863 | 1.02 | 0.959 | 0.987 | 1.25 | 1.21 | 1.27 | 1.13 | 1.04 | 0.733 | 0.65 | 0.723 | 0.68 |
| LCLC-97TM1 | 0.955 | 1.02 | 1.11 | 0.71 | 0.939 |  | 0.971 | 0.95 | 0.878 | 1.05 |  | 0.716 | 0.634 | 0.205 |  | 0.219 | 0.23 | 0.122 |
| NCI-H2347 | 1.06 | 1.05 | 1.09 | 0.983 | 1.13 | 0.904 | 1.04 | 1.02 | 1.01 | 1.27 |  | 0.862 | 0.985 | 1.3 | 1.06 | 1.02 | 1.04 | 0.975 |
| LCLC-103H | 1.03 | 0.981 | 0.954 | 0.985 | 1.15 | 1.01 | 1.03 | 1.03 | 1.07 | 1.36 | 1.05 | 1.01 | 1.13 | 1.1 | 0.973 | 0.926 | 1.04 | 0.94 |
| NCI-H596 | 1.05 | 1.1 | 0.956 | 0.931 | 1.05 | 1.01 | 1 | 0.992 | 1.06 | 0.906 | 0.651 | 1.28 | 0.96 | 0.982 | 0.51 | 0.464 | 0.457 | 0.422 |
| NCI-H727 | 0.961 | 0.898 | 1.03 | 0.936 | 1.22 | 0.891 | 0.856 | 0.97 | 0.896 | 1.09 | 0.768 | 0.869 | 0.95 | 0.795 | 0.545 | 0.593 | 0.629 | 0.577 |
